Experimental data: patent US4122202A, “Amino-3H-isobenzofuranones N-substitutes and their therapeutic application” (Societe Cortial, priority 1975, dated 1978)
Like-named read-outs stand apart in the source and are kept apart here.

Tests used:
rats [1] = assay: Ulcerous activity (modified method of Colot); assay type: in vivo, female EOPS rats; details: 250 mg/kg oral daily
Procedure: Ulcerous activity was determined according to a modification of the method by Colot (Technical notions of general pharmacology, 1972) in the case of femal EOPS rats of approximately 150 g. The animals were left without absolutely any food, while the test products were orally administered on a daily basis in suspension in 2% Tween at a volume of 0.5 ml/100 g. The animals were killed under chloroform and the stomachs were removed. Ulcerous activity was established by means of an index taking into account the degree of ulceration and the percentage of animals effected.
In the table given below, a comparison is shown between the results obtained with niflumic acid and product No. 1.

[2] = Oral toxicity in mice (LDO, LD50); assay type: in vivo; details: mouse, in vivo; for LD50 at 336 h: gummy julep (No. 1 and 13 in Tween), 2 weeks observation
Procedure: (§1) This toxicity is estimated by the calculation of the lethal dose of 50 (LD 50) which determines the fatal dose of the substance for 50% of the animals tested. This determination was effected in accordance with a modification of the method by Litchfield and Wilcoxon (J. Pharmacol. Exp. Therap. 1949, 96, 99-113).
(§2) Swiss mice without specific pathogenic organisms were kept in air conditioned rooms 24 to 48 hours before the start of the tests. They were divided into batches of 5.male. and 5.female.. With the animals unfed for 24 hours, the substances were intragastically administered in suspension in 2% Tween 80 or in 6% gummy julep in a volume equivalent to 0.1 ml per 10 g of the weight of the animal.
(§3) They remained under observation for two weeks before being killed and subjected to an autopsy.
(§4) All products were administered in gummy julep except No. 1 and No. 13 which were administered in Tween. The analgesic activity were determined in mice by utilizing as a nociceptive agent, phenylbenzoquinone (PBQ) (modification of the method by Siegmund and co-workers Proc. Soc. Exp. Biol. Med. 1957, 95, 729-31). The process consists of seeking a possible protection for the mouse vis-a-vis abdominal twisting and stretching of the hind legs induced by the parental injection of PBQ. 25 minutes after having orally administered the products to be tested in suspension in 2% Tween 80 or in 6% gummy julep, the PBQ solution was injected and the mice were observed after 5 minutes during the following 5 minutes. For certain products, AD 50 is presented as a measure of activity.

rats [3] = assay: Anti-inflammatory activity: carragenic test (carragenine-induced edema of the hind leg); assay type: in vivo, male rats; details: for ED50: oral
Procedure: All products were administered in gummy julep except No. 1 and No. 13 which were administered in suspension in Tween. The anti-inflammatory activity was determined by the carragenic test with male rats. Inflammation was induced by the injection of 0.1 ml of a 0.5% suspension of carragenine in a physiological serum into the muscular fasciculus of the metatarsal region of the hind leg of the animal. The substance to be tested was orally administered simultaneously with the carragenine. The edema was measured by phethysmography 1, 2, 3, 4, 5 and 6 hours after the administration of the carragenine.
**50 mg/kg No. 13 which were administered in suspension in Tween.

mice [4] = assay: Analgesic activity: protection against abdominal twisting induced by phenylbenzoquinone (PBQ); assay type: in vivo; details: for ED50: Mus musculus, oral, read-out: AD 50 (the source's name)
Procedure: as §4, with “activity. […]” for “activity.”

mice [5] = assay: Oral toxicity in mice (LDO, LD50); assay type: in vivo; details: gummy julep (No. 1 and 13 in Tween), 2 weeks observation
Procedure: as §1, §2, §3, §4

[6] = Rattus norvegicus, 2H, read-out: ED 50
[7] = Rattus norvegicus, 4H, read-out: ED 50

Molecule | LD50 at 336 h [2] | % activity (inhibition of edema) (rats [3]; 400 mg/kg oral, 4H) | % activity (mice [4]; 200 mg/kg oral) | LDO (maximum dose which did not lead to any mortality) (mice [5]) | % activity (inhibition of edema) (rats [3]; 200 mg/kg oral, 4H) | ED50 (mice [4]) | % activity (inhibition of edema) (rats [3]; 150 mg/kg oral, 2H) | % activity (inhibition of edema) (rats [3]; 150 mg/kg oral, 4H) | % activity (inhibition of edema) (rats [3]; 300 mg/kg oral, 2H) | % activity (inhibition of edema) (rats [3]; 300 mg/kg oral, 4H) | further results
O=C1OC(Nc2ccc3c(c2)OCO3)c2ccccc21 (stereo not drawn) [Product 1] | ~2600 mg/kg | – | – | – | – | – | – | – | – | – | IA: Acute ulceration index (rats [1]; 1 day): 0; IC: Ulceration index on the way of cicatrization (rats [1]; 1 day): 1.5; IA: Acute ulceration index (rats [1]; 3 days): 5; IC: Ulceration index on the way of cicatrization (rats [1]; 3 days): 22
CCC1(CC)Oc2ccc(NC3OC(=O)c4ccccc43)cc2O1 (stereo not drawn) [Product 2] | ~2000 mg/kg | 20% | 29% | ~ 1500 mg/kg | – | – | – | – | – | – | –
O=C1OC(Nc2ccc3c(c2)OC2(CCCCC2)O3)c2ccccc21 (stereo not drawn) [Product 3] | ≥ 2000 mg/kg | 21% | 29% | 1000 to 2000 mg/kg | 20% | – | – | – | – | – | –
CCCC1(CCC)Oc2ccc(NC3OC(=O)c4ccccc43)cc2O1 (stereo not drawn) [Product 4] | ~2000 mg/kg | 13% | 20% | – | 23% | – | – | – | – | – | –
CCCCC1(C)Oc2ccc(NC3OC(=O)c4ccccc43)cc2O1 (stereo not drawn) [Product 5] | > 2000 mg/kg | 17% | 42% | > 2000 mg/kg | 28% | 270 mg/kg | – | – | – | – | –
CCCC1(CC)Oc2ccc(NC3OC(=O)c4ccccc43)cc2O1 (stereo not drawn) [Product 6] | ≥ 2000 mg/kg | 3% | 25% | 1000 to 2000 mg/kg | 22% | 420 mg/kg | – | – | – | – | –
CC1(C)Oc2ccc(NC3OC(=O)c4ccccc43)cc2O1 (stereo not drawn) [Product 7] | – | 25% | 81% | ~ 1000 mg/kg | 20% | 80 mg/kg | – | – | – | – | % activity (inhibition of edema) (rats [3]; 200 mg/kg oral, 2H): 19%; % activity (inhibition of edema) (rats [3]; 400 mg/kg oral, 2H): 23%; mortality at 336 h ([2]; at 2000 mg/kg, read-out: deaths (LD50 column)): 70%
COc1ccc2c(c1OC)C(=O)OC2Nc1ccc2c(c1)OCO2 (stereo not drawn) [Product 8] | ~1000 mg/kg | 48% | 54% | 750 to 1000 mg/kg | 66% | 180 mg/kg | – | – | – | – | % activity (inhibition of edema) (rats [3]; 200 mg/kg oral, 2H): 68%; % activity (inhibition of edema) (rats [3]; 400 mg/kg oral, 2H): 74%; ED50 (rats [3]; [6]): 180 mg/kg; ED50 (rats [3]; [7]): 230 mg/kg
Cc1cc2c(cc1NC1OC(=O)c3ccccc31)OCO2 (stereo not drawn) [Product 9] | > 2000 mg/kg | 60% | – | 1000 to 2000 mg/kg | 39% | 70 mg/kg | – | – | – | – | % activity (inhibition of edema) (rats [3]; 200 mg/kg oral, 2H): 29%; % activity (inhibition of edema) (rats [3]; 400 mg/kg oral, 2H): 71%; ED50 (rats [3]; [6]): 220 mg/kg; ED50 (rats [3]; [7]): 240 mg/kg; % activity (mice [4]; 100 mg/kg oral): 83%
CCN(c1ccc2c(c1)OCO2)C1OC(=O)c2ccccc21 (stereo not drawn) [Product 12] | ~590 mg/kg | – | – | – | – | 45 mg/kg | – | – | – | – | % activity (inhibition of edema) (rats [3]; 25 mg/kg (footnote *) oral, 2H): 33%; % activity (inhibition of edema) (rats [3]; 25 mg/kg (footnote *) oral, 4H): 17%; % activity (inhibition of edema) (rats [3]; 50 mg/kg oral, 2H): 43%; % activity (inhibition of edema) (rats [3]; 50 mg/kg oral, 4H): 28%; % activity (mice [4]; 50 mg/kg oral): 61%
O=C1OC(Nc2ccc3c(c2)OCCO3)c2ccccc21 (stereo not drawn) [Product 13] | ≥ 3000 mg/kg | – | – | ≥ 1000 mg/kg | – | 100 mg/kg | 77% | 50% | 76% | 55% | ED50 (rats [3]; [6]): 230 mg/kg; ED50 (rats [3]; [7]): 210 mg/kg; % activity (mice [4]; 150 mg/kg oral): 73%
COc1ccc2c(c1OC)C(=O)OC2Nc1ccc2c(c1)OCCO2 (stereo not drawn) [Product 14] | – | 63% | 73% | > 2000 mg/kg | 33% | 150 mg/kg | – | – | – | – | % activity (inhibition of edema) (rats [3]; 200 mg/kg oral, 2H): 63%; % activity (inhibition of edema) (rats [3]; 400 mg/kg oral, 2H): 79%; ED50 (rats [3]; [6]): 175 mg/kg; ED50 (rats [3]; [7]): 260 mg/kg
O=C(O)c1cc2c(cc1NC1OC(=O)c3ccccc31)OCO2 (stereo not drawn) [Product 15] | – | – | 26% | > 2000 mg/kg | – | – | 15% | 21% | 15% | 4% | –
COC(=O)c1cc2c(cc1NC1OC(=O)c3ccccc31)OCO2 (stereo not drawn) [Product 16] | – | – | – | > 2000 mg/kg | – | – | 12% | 10% | – | – | % activity (mice [4]; 100 mg/kg oral): 33%
O=C1OC(Nc2ccc3c(c2)OCC(CO)O3)c2ccccc21 (stereo not drawn) [Product 17] | – | – | 28% | > 2000 mg/kg | – | 420 mg/kg | 27% | 17% | 29% | 8% | –
O=C1OC(Nc2ccc3c(c2)OC(CO)CO3)c2ccccc21 (stereo not drawn) [Product 18] | – | – | 44% | > 2000 mg/kg | – | 260 mg/kg | 16% | 6% | 22% | 0% | –
CC(=O)OCC1COc2ccc(NC3OC(=O)c4ccccc43)cc2O1 (stereo not drawn) [Product 19] | – | – | – | > 2000 mg/kg | – | 500 mg/kg | 21% | 23% | 26% | 27% | % activity (mice [4]; 300 mg/kg oral): 21%
CC(=O)OCC1COc2cc(NC3OC(=O)c4ccccc43)ccc2O1 (stereo not drawn) [Product 20] | – | – | 13% | > 2000 mg/kg | – | 550 mg/kg | 16% | 3% | 10% | 13% | –
O=C1OC(Nc2ccc3c(c2)COCO3)c2ccccc21 (stereo not drawn) [Product 21] | – | – | 61% | > 2000 mg/kg | – | 275 mg/kg | – | – | 44% | 43% | ED50 (rats [3]; [6]): 400 mg/kg; ED50 (rats [3]; [7]): 500 mg/kg
Cc1cc(NC2OC(=O)c3ccccc32)c(C)c2c1OCOC2 (stereo not drawn) [Product 22] | – | – | 38% | > 2000 mg/kg | – | 260 mg/kg | 35% | 31% | – | – | –
N(2,2-dimethyl benzodioxol-1,3 yl-5) 3-amino 3H-isobenzofuranone-1 [Product 7] | – | 68% | 86% | – | – | – | 68% | 43% | – | – | % activity (inhibition of edema) (rats [3]; 400 mg/kg oral, 2H): 72%; ED50 (rats [3]; 2H): 75 mg/kg; ED50 (rats [3]; 4H): 220 mg/kg
